Columns and labels:
[1] = biological target: T1, aldosterone synthase (CYP11B2) (Macaca fascicularis, UniProt A0A2K5UPL9); experiment: Inhibition of aldosterone synthase (cynomolgus adrenal mitochondria, aldosterone by mass spectrometry); format: biochemical, cynomolgus monkey; conditions: cynomolgus adrenal gland mitochondria, 2 μM corticosterone substrate, 90 minutes at 37° C.
T1 construct: cynomolgus adrenal gland mitochondria as the source of aldosterone synthase (CYP11B2); from tissue; host or cells: cynomolgus monkey adrenal gland mitochondria
T1 sequence (A0A2K5UPL9 1-503): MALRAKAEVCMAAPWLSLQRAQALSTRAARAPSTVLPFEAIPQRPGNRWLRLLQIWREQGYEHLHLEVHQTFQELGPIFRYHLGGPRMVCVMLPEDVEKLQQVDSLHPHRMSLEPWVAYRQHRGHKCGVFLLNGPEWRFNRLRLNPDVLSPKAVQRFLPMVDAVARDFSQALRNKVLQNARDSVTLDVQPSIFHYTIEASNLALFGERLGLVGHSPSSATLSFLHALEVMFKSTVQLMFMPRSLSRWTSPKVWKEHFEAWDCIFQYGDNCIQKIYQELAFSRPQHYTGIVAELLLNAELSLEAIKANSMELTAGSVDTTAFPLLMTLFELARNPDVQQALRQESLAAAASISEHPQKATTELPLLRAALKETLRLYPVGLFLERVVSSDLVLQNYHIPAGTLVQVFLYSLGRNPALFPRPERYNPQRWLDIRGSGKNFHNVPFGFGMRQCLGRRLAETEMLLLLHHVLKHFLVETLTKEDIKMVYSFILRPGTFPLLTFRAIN
Protocol: (§1) The aldosterone synthase and cortisol synthase inhibition assays employ cynomolgus adrenal gland mitochondria as the source of aldosterone synthase (CYP11B2) and cortisol synthase (CYP11B1). Mitochondria are prepared from frozen cynomolgus monkey adrenal glands according to Method A described in by J. D. McGarry et al. (Biochem. J., 1983, 214, 21-28), with a final resuspension in the AT buffer described in R. Yamaguchi et al. (Cell Death and Differentiation, 2007, 14, 616-624), frozen as aliquots in liquid nitrogen and stored at −80° C. until use. Activity of CYP11B2 and CYP11B1 in these preparations is defined as the amount of enzyme that generates 1 pmol of product in one hour under the conditions described.
Assays are performed in 96-well format in a final volume of 60 µL/well, containing 100 mM potassium phosphate, pH 7.4, 1% (v/v) DMSO, and additionally, 2 μM of corticosterone and 50 units of CYP11B2 activity. Reactions are started by the addition of NADPH to 1 mM and allowed to proceed for 90 minutes at 37° C. Reactions are terminated by the addition of 60 μL of MeCN containing an internal standard for mass spectrometry. One hundred microliters are then transferred to a glass filter plate and centrifuged at 570×g for 5 minutes and the filtrate is collected. Reaction product aldosterone is quantified by mass spectrometry. To determine the assay blank value (0% activity), NADPH is omitted from some reactions.
Dose dependent inhibition is quantified by the inclusion of compound at various concentrations. Maximum activity (100%) is defined by reactions containing NADPH, but without compound. Activities at each concentration are expressed as a percentage of the maximum activity (y-axis) and plotted against concentration of compound (x-axis) and the concentration corresponding to 50% activity (IC50) determined using the XLFit curve-fitting program using a 4-parameter logistic model.

[2] = biological target: cortisol synthase (CYP11B1) (Macaca fascicularis, UniProt A0A2K5ULY1); experiment: Inhibition of cortisol synthesis (cynomolgus adrenal mitochondria, cortisol by mass spectrometry); format: biochemical, cynomolgus monkey; conditions: cynomolgus adrenal gland mitochondria, 11-deoxycortisol as substrate, cortisol measured as product; read-out: CYP11B1 Inhibition IC50
Protocol: as §1, with “described. Dose dependent inhibition is quantified by the inclusion of compound at various concentrations. Maximum activity (100%) is defined by reactions containing NADPH, but without compound. Activities at each concentration are expressed as a percentage of the maximum activity (y-axis) and plotted against concentration of compound (x-axis) and the concentration corresponding to 50% activity (IC50) determined using the XLFit curve-fitting program using a 4-parameter logistic model. Assays are performed as for aldosterone synthase except for the use of 150 units of CYP11B1, 11-deoxycortisol as substrate and cortisol measured as product.” for “described.”

Row | SMILES | IC50 [1] [nM] | IC50 [2] [nM]
1 | CC1(C)Cc2noc(Cc3ccc(C(N)=O)cc3)c2C(=O)O1 [Cpd 95, 4-(6,6-Dimethyl-4-oxo-6,7-dihydro-4H-pyrano[4,3-c]isoxazol-3-ylmethyl)-benzamide] | 71 | 16000
2 | COCC(=O)N1CCC(Cc2onc3c2C(=O)CC(C(C)C)C3)CC1 (centres unmarked) [Cpd 18, 6-Isopropyl-3-[1-(2-methoxy-acetyl)-piperidin-4-ylmethyl]-6,7-dihydro-5H-benzo[c]isoxazol-4-one] | 89 | 2800
3 | CC1(C)Cc2noc(Cc3ccc(OCCS(C)(=O)=O)cc3)c2C(=O)O1 [Cpd 91, 3-[4-(2-Methanesulfonyl-ethoxy)-benzyl]-6,6-dimethyl-6,7-dihydro-pyrano[4,3-c]isoxazol-4-one] | 120 | 21000
4 | CC(C)C1CC(=O)c2c(noc2Cc2ccc(OCCCS(C)(=O)=O)cc2)C1 (centres unmarked) [Cpd 47, 6-Isopropyl-3-[4-(3-methanesulfonyl-propoxy)-benzyl]-6,7-dihydro-5H-benzo[c]isoxazol-4-one] | 20 | 130
5 | CC(C)C1CC(=O)c2c(noc2Cc2ccc(C#N)cc2)C1 (single isomer, unassigned) [Cpd 39B, 4-(-6-Isopropyl-4-oxo-4,5,6,7-tetrahydro-benzo[c]isoxazol-3-ylmethyl)-benzonitrile] | 120 | 3400
6 | CC1(C)CC(=O)c2c(noc2Cc2ccc(OCCCS(C)(=O)=O)cc2)C1 [Cpd 27, 3-[4-(3-Methanesulfonyl-propoxy)-benzyl]-6,6-dimethyl-6,7-dihydro-5H-benzo[c]isoxazol-4-one] | 59 | 3400
7 | N#Cc1ccc(Cc2onc3c2C(=O)CC2(CCC2)C3)cc1 [Cpd 38, 4-(-6,6-spiro-cyclobutyl-4-oxo-4,5,6,7-tetrahydro-benzo[c]isoxazol-3-ylmethyl)-benzonitrile] | 55 | 1000
8 | CC1(C)CC(=O)c2c(noc2Cc2ccc(OCCC(=O)N3CC[C@@H](O)C3)cc2)C1 [Cpd 83, 3-{4-[3-((R)-3-Hydroxy-pyrrolidin-1-yl)-3-oxo-propoxy]-benzyl}-6,6-dimethyl-6,7-dihydro-5H-benzo[c]isoxazol-4-one] | 69 | 2700
9 | CC1(C)Cc2noc(Cc3ccc(OCCCS(C)(=O)=O)cc3)c2C(=O)O1 [Cpd 90, 3-[4-(3-Methanesulfonyl-propoxy)-benzyl]-6,6-dimethyl-6,7-dihydro-pyrano[4,3-c]isoxazol-4-one] | 16 | 4600
10 | CC1(C)Cc2noc(CC3CCOCC3)c2C(=O)O1 [Cpd 92, 6,6-Dimethyl-3-(tetrahydro-pyran-4-ylmethyl)-6,7-dihydro-pyrano[4,3-c] isoxazol-4-one] | 340 | 69000
11 | CC1(C)CC(=O)c2c(noc2Cc2ccc(C(=O)NCC3(CO)CCCC3)cc2)C1 [Cpd 70, 4-(6,6-Dimethyl-4-oxo-4,5,6,7-tetrahydro-benzo[c]isoxazol-3-ylmethyl)-N-(1-hydroxymethyl-cyclopentylmethyl)-benzamide] | 160 | 11000
12 | COc1ccc(Cc2onc3c2C(=O)CC(C2CCOCC2)C3)cc1 (centres unmarked) [Cpd 8, 3-(4-Methoxy-benzyl)-6-(tetrahydro-pyran-4-yl)-6,7-dihydro-5H-benzo[c]isoxazol-4-one] | 78 | > 100000
13 | CC1(C)CC(=O)c2c(noc2Cc2ccc(C(=O)NCCS(C)(=O)=O)cc2)C1 [Cpd 61, 4-(6,6-Dimethyl-4-oxo-4,5,6,7-tetrahydro-benzo[c]isoxazol-3-ylmethyl)-N-(2-methanesulfonyl-ethyl)-benzamide] | 91 | 7400
14 | N#Cc1ccc(Cc2onc3c2C(=O)CC(C2CCOCC2)C3)cc1 (centres unmarked) [Cpd 12, 4-[4-Oxo-6-(tetrahydro-pyran-4-yl)-4,5,6,7-tetrahydro-benzo[c]isoxazol-3-ylmethyl]-benzonitrile] | 180 | 51000
15 | CC1(C)CC(=O)c2c(noc2Cc2ccc(C(=O)N3CC[C@H](O)C3)cc2)C1 [Cpd 65, 3-[4-((S)-3-Hydroxy-pyrrolidine-1-carbonyl)-benzyl]-6,6-dimethyl-6,7-dihydro-5H-benzo[c]isoxazol-4-one] | 110 | 7600
16 | CN(CCO)C(=O)c1ccc(Cc2onc3c2C(=O)OC(C)(C)C3)cc1 [Cpd 96, 4-(6,6-Dimethyl-4-oxo-6,7-dihydro-4H-pyrano[4,3-c]isoxazol-3-ylmethyl)-N-(2-hydroxy-ethyl)-N-methyl-benzamide] | 73 | 10000
17 | CC1CC(=O)c2c(noc2Cc2ccc(OCCCS(C)(=O)=O)cc2)C1 (centres unmarked) [Cpd 48, 3-[4-(3-Methanesulfonyl-propoxy)-benzyl]-6-methyl-6,7-dihydro-5H-benzo[c]isoxazol-4-one] | 46 | 670

Results, then the compound that gave them:

Row | IC50 [1] [nM] | IC50 [2] [nM] | SMILES
18 | 690 | 24000 | CC(=O)N1CCC(Cc2onc3c2C(=O)CC(C)(C)C3)CC1 [Cpd 17, 3-(1-Acetyl-piperidin-4-ylmethyl)-6,6-dimethyl-6,7-dihydro-5H-benzo[c]isoxazol-4-one]
19 | 130 | 5800 | CC1(C)CC(=O)c2c(noc2Cc2ccc(C(=O)N3CC[C@@H](O)C3)cc2)C1 [Cpd 46, 3-[4-((R)-3-Hydroxy-pyrrolidine-1-carbonyl)-benzyl]-6,6-dimethyl-6,7-dihydro-5H-benzo[c]isoxazol-4-one]
20 | > 1000 | > 100000 | CC1(C)CC(=O)c2c(noc2Cc2ccc(C(=O)O)cc2)C1 [Cpd 40, 4-(6,6-Dimethyl-4-oxo-4,5,6,7-tetrahydro-benzo[c]isoxazol-3-ylmethyl)-benzoic acid]
21 | 420 | 64000 | O=C(O)c1ccc(Cc2onc3c2C(=O)CC(CC2CC2)C3)cc1 (centres unmarked) [Cpd 45, 4-(6-Cyclopropylmethyl-4-oxo-4,5,6,7-tetrahydro-benzo[c]isoxazol-3-ylmethyl)-benzoic acid]
22 | 180 | 5900 | CC1(C)CC(=O)c2c(noc2Cc2ccc(C(=O)N3CCC[C@@H](O)C3)cc2)C1 [Cpd 72, 3-[4-((R)-3-Hydroxy-piperidine-1-carbonyl)-benzyl]-6,6-dimethyl-6,7-dihydro-5H-benzo[c]isoxazol-4-one]
23 | 72 | 580 | CS(=O)(=O)CCCOc1ccc(Cc2onc3c2C(=O)CC2(CCC2)C3)cc1 [Cpd 50, 3-[4-(3-Methanesulfonyl-propoxy)-benzyl]-6-6-spirocyclebutyl-6,7-dihydro-5H-benzo [c]isoxazol-4-one]
24 | 410 | 14000 | CC(C)C1CC(=O)c2c(noc2CC2CCN(C(=O)CS(C)(=O)=O)CC2)C1 (centres unmarked) [Cpd 20, 6-Isopropyl-3-[1-(2-methanesulfonyl-acetyl)-piperidin-4-ylmethyl]-6,7-dihydro-5H-benzo[c]isoxazol-4-one]
25 | 170 | 20000 | C[C@H](O)CNC(=O)c1ccc(Cc2onc3c2C(=O)CC(C)(C)C3)cc1 [Cpd 71, 4-(6,6-Dimethyl-4-oxo-4,5,6,7-tetrahydro-benzo[c]isoxazol-3-ylmethyl)-N-((S)-2-hydroxy-propyl)-benzamide]

— patent US10131642B1, “Aldosterone synthase inhibitors” (Boehringer Ingelheim International GmbH, priority 2015, dated 2018)
